Laboratory results from patent US20240051921A1, “CRYSTALLINE FORM OF A PHENOLIC TRPV1 AGONIST PRODRUG” (Concentric Analgesics, Inc., priority 2020, published 2024).

Assay: Dynamic vapor sorption (DVS) test, form stability as a function of relative humidity
Assay type: physicochemical
Settings: 25° C.
Experimental: DVS test was performed using an SMS (Surface Measurement Systems) DVS Intrinsic instrument. The relative humidity at 25° C. were calibrated against deliquescence point of LiCl, Mg(NO3)2 and KCl. The following instrument parameters were used:
DVS test was performed on crystalline Compound 1, Form 1, to investigate its form stability as a function of relative humidity. The DVS test was first conducted at 25° C. with humidity cycled between 0% RH-95% RH-0% RH.

CNCC1CCCCN1C(=O)Oc1ccc(CNC(=O)CCCC/C=C/C(C)C)cc1OC.Cl (stereo not drawn) [Compound 1, Form 1, (E)-2-methoxy-4-((8-methylnon-6-enamido)methyl)phenyl 2-((methylamino)methyl)piperidine-1-carboxylate hydrochloride]
crystal form change before and after DVS test (XRPD) (0% RH-95% RH-0% RH, checked by XRPD): no form change occurred | moisture content (DVS) (at 95% RH, cycle 0% RH-95% RH-0% RH): 16.5 % wt | moisture content, relative stable platform (DVS) (between 20% RH and 70% RH): ~3.5 % wt
